Entries after “also recorded” stand apart in the source; their conditions may differ.

What all share (type): cell-based, human
For test [1], the system named is LNCaP prostate epithelial cells. In words: Proliferation assay (cell counts), LNCaP. The protocol: Proliferation assays. Cellular proliferation was assessed after plating cells at 50 000 cell/well in triplicate in six-well plates and counting cells after 24 and 96 h of incubation in complete media, serum-free media or serum-free prostate stromal fibroblast conditioned media, as described previously (Macoska J A, et al., (2004) Cancer Genet. Cytogenet. 154, 36-43; incorporated herein by reference in its entirety). Averages and standard deviations of cell number were calculated for each time point under each media condition. To assess the effects of exogenous CXCL12 on cellular proliferation, recombinant human SDF1 alpha/CXCL12 (R & D Systems, 350-NS) was added at the desired concentration in 1 mL SF HIE (or 1 mL SF HIE alone for control) to each well. The cells were counted at 24 and 96 h growth and re-fed at 48 and 72 h growth. Cell counts were normalized to 50 000 cells at 24 h to account for any plating discrepancies.
Proliferation Assays. Cellular proliferation was assessed after plating cells at 50,000 cell/well in triplicate in six well plates and counting cells after 24 and 96 hours of incubation as described previously (see, e.g., Macoska J A, et al., 2004 Cancer Genet. Cytogenet. 154, 36-43; incorporated herein by reference in its entirety). To assess the effects of exogenous CXCL12 on cellular proliferation, recombinant human SDF1 alpha/CXCL12 (R&D Systems, 350-NS) was added at the desired concentration in 1 ml SF HIE (or 1 ml SF HIE alone for control) to each well. The cells were re-fed at 48 and 72 hours growth and counted at 24 and 96 hours growth. Cell counts were normalized to 50,000 cells at 24 hours to account for any plating discrepancies. Averages and standard deviations of cell number were calculated for each time point under each media condition. Experiments utilizing U0126 were performed as above, except that cells were treated after plating for 2 hours with either DMSO (vehicle) or 5 uM U0126 before addition of CXCL12. Cells were maintained in media containing DMSO or U0126 for the entirety of the experiment. For the antibody blockade experiments, cells were plated at 10,000 cells per well in triplicate in 24 well dishes and pre-incubated with mouse IgG2aκ (BD Pharmingen 555571) or mouse anti-CXCR4 (BD Pharmingen 555971) at 1 ug/ml for 1 hour prior to CXCL12 addition. Cells were maintained in media containing appropriate antibodies for the entirety of the experiment, and cells were counted at 24 and 96 hours as above.
Proliferation Assays. Cellular proliferation was assessed after plating cells at 50,000 cell/well in triplicate in six well plates and counting cells after 24 and 96 hours of incubation as described previously (see, e.g., Begley L, et al., Genes Chromosomes Cancer. 2006 February; 45(2): 136-46; herein incorporated by reference in its entirety). To assess the effects of exogenous CXCL5 on cellular proliferation, recombinant human CXCL5 (R&D Systems, 254-X) was added at the desired concentration in 2 ml SF media (or 2 ml SF media alone for control) to each well. The cells were re-fed at 24 hours growth and counted at 24 and 96 hours growth. Cell counts were normalized to 50,000 cells at 24 hours to account for any plating discrepancies. Averages and standard deviations of cell number were calculated for each time point under each media condition. For the antibody blockade experiments, 10,000 cells per well were plated in triplicate in 24 well dishes and preincubated with mouse anti-human CXCR2 (Biosource AHR1532X) or mouse antihuman CXCR4 (BD Pharmingen 555971) at 1 ug/ml for 1 hour prior to CXCL5 addition. Cells were maintained in media containing appropriate antibodies for the entirety of the experiment and were counted at 24 and 96 hours as above.

Test [2] relates to EGR1 gene transcript. In words: Quantitative real-time PCR, EGR1 in N15C6 cells. As for the experimental part:
(§1) Quantitative Real-Time PCR. All quantitative real-time assays were conducted with an Applied Biosystems 7900HT instrument and reagents. Cells were grown to 70% confluence in […] dishes prior to RNA purification using the Trizol reagent (Invitrogen Life Technologies). Experiments utilizing U0126 were performed as above, except that cells were treated with DMSO (vehicle) or 5 uM U0126 for 2 hours, then grown in the presence or absence of CXCL12. For all experiments, one microgram of RNA was reverse transcribed by use of Superscript III reverse transcriptase (Invitrogen, Carlsbad, Calif.). The resulting cDNA was diluted 1:100. Real-time PCR was performed by use of Assays on Demand (Applied BioSystems, Foster City, Calif.) according to the manufacturer's instructions, except that Real Time Ready with Rox passive dye (QBioGene, Carlsbad, Calif.) was used in place of TaqMan Universal PCR Master Mix. […] Cycle numbers to threshold were calculated by subtracting averaged control from averaged experimental values, and Fold Gene Expression was calculated by raising […]. […]
(§2) Quantitative Real-Time PCR. All quantitative real-time assays were conducted as previously described with an Applied Biosystems 7900HT instrument and reagents (see, e.g., Begley L A, et al., J Biol. Chem. 2007 Sep. 14; 282(37):26767-74; herein incorporated by reference in its entirety). […]

Test [3] relates to EGR1 gene transcript. In words: Quantitative real-time PCR, EGR1 in LNCaP cells. The protocol:
as §1, §2
(Real-time PCR tracks product formation cycle by cycle.)

Regarding `N#CC(=C(/N)Sc1ccccc1N)/C(C#N)=C(\N)Sc1ccccc1N` [U0126], the “effect on proliferative response to CXCL12” value in test [1] (co-treatment with U0126 (5 uM), 50 pM CXCL12) is “not affected”. For the same compound, the “effect of U0126 on the effect of CXCL5 (anticipated)” value in test [1] (stated as anticipated) is given as “will inhibit”. Besides, the “effect on CXCL12-stimulated EGR1 gene transcription” value with EGR1 gene transcript [2] (5 uM U0126 for 2 hours, then 10 pM CXCL12) is on record as “ablated; also recorded: further dampens”; with EGR1 gene transcript [3] (5 uM U0126 for 2 hours, then 50 pM CXCL12) it was “ablates”.

Regarding “CXCL5: recombinant human CXCL5 (R&D Systems, 254-X), CXC-type chemokine”, the “proliferation versus SF media alone” value in test [1] (0.001-1 nM CXCL5, p<0.05) is reported as “significantly higher”. The “effect of CXCL5 on proliferation” value in test [1] (CXCL5 1-10 pM) is listed as “did not stimulate”. The “cell proliferation compared to serum-free (SF HIE) media alone” value in test [1] (add back of exogenous chemokine, 96 hours) is “stimulate”. The “EGR1 transcript versus vehicle-treated cells” value in the test on EGR1 gene transcript [2] (1-100 pM CXCL5) is 4- to 8 fold; with EGR1 gene transcript [3] (only at the lowest CXCL5 concentration (10 pM) tested), 2- to 3 fold.
